# Assay results published in patent US8329681B2, “Methods and compositions for the efficient delivery of therapeutic agents to cells and animals” (University of Massachusetts, priority 2005, dated 2012).
# How the values were obtained:
# CDK9 expression = experiment: Liposome-mediated CDK9 siRNA gene knock-down in FL83B cells, real-time RT-PCR; format: cell-based, rat; settings: CDK9 siRNA transfected with liposome
# Procedure: Total RNA was extracted from tissues or cultured cells using Trizol (Invitrogen, Carlsbad, Calif.), and real-time RT-PCR for CDK9 and GAPDH mRNA quantification was carried out using 200 ng of total RNA and the QuantiTect SYBR Green RT-PCR Kit (Qiagen, Valencia, Calif.) according to the manufacturer's instructions. The ratio of CDK9 and GAPDH mRNA was calculated and expressed as a group average relative to the control group. The specific probe for detection of CDK9 mRNA levels was designed to the following regions of the CDK9 mRNA ORF, the forward primer 5′ TCGGACCAA AGCCTCACCGTATAA 3′, the reverse primer 5′ […] TTG 3′
# FL83B were cultured in F-12K medium (ATCC, Manassas, Va.) with 10% fetal bovine serum at 37° C. in 5% CO2. FL83B were plated on 6-well plates at 70% confluency 24 hours before transfection. […] Gene silencing was monitored by Real-time RT-PCR.
# The complexes of CDK9 siRNA (2 μg) and DOATP-Chol (10 μg) or DMTAP-Chol (10 μg) or Transfast-Chol […] were added to Opti-MEM I medium and cells were incubated in the mixture for 6 hr. […] RNA was extracted from cells using Trizol Reagent and real-time RT-PCR for CDK9 and GAPDH mRNA quantification was carried out using 200 ng of total RNA and the QuantiTect SYBR Green RT-PCR Kit. The ratio of CDK9 and GAPDH mRNA was calculated and expressed as a group average relative to the control group. […]
# [1] = Tissue distribution of Cy3-labeled siRNA by fluorescence microscopy; format: in vivo, BALB/c mice; settings: 24 h after injection
# Procedure: Freshly excised tissues were frozen in liquid nitrogen and mounted for crytostat sectioning. Sections of 5 μm were fixed with in 100% acetone at 4° C. for 10 min, air-dried and mounted in Vectashild with DAPI (Vector Laboratories, Inc. Burlingame, Calif.). Slides were viewed and recorded under Leica confocal microscope.
# Male BALB/c mice, 6-8 weeks of age and weighting 20-22 g, were purchased form the Jackson Laboratory (Bar Harbor, Me.). Synthetic siRNA were delivered in vivo using following method. For each mice 25 μg of siRNA in 100 μl of HEPES Buffered Saline (20 mM HEPES, 150 mM NaCl, pH 7.4) was transferred into a sterile tube. In a separate sterile tube 125 μg of liposome was mixed with 200 μl HEPES Buffered Saline. The siRNA solution was transferred to the tube containing liposome solution and then incubated at room temperature for 20 minutes. 200 μl of the complexes was injected via the tail vein, using a 1-ml syringe and 27-gauge needle. The injection was repeated 4 and 8 h later. Control mice were injected with an equal volume of liposome. At 24 h after the last injection, the mice were sacrificed and tissues were harvested for further analysis. […]
# The tissue distribution patterns of siRNA delivered in BALB/c mice using DOTAP-Chol were assessed by fluorescence microscopy.
# [2] = test system: A-549, FL83B and HeLa cells; experiment: Transfection of pSV-β-gal plasmid, overall statement without cell line; format: cell-based; settings: alone without any co-lipids
# Procedure: Cells were seeded at a density of 20,000 (for HeLa cells), 16,000 (for A-549 cells), 8,000 (for FL83B cells) per well in a 96-well plate 18-24 h before transfection. An amount of 0.30 μg of pDNA was complexed with varying amounts of lipids (to give +/− ratios of 0.3:1, 1:1, 3:1 and 9:1) in plain OPTIMEM (total volume made up to 100 μl) and then shaken on a rotary shaker at room temperature for 20-30 minutes. The complexes were then added to the cells. After 5 h of incubation, 200 μl of complete medium containing 10% FBS in DMEM for HeLa and 10% FBS in F-12K for FL83B and A549 was added to the cells. The medium was changed after 24 h and the reporter gene activity was estimated 48 h after transfection. Cells were washed with PBS (100 μl) and lysed in […] lysis buffer (5× reporter lysis buffer diluted to 1×, working concentration). The β-galactosidase activity per well was estimated by adding 50 μl of 2× substrate solution (1.33 mg/ml of ONPG, 0.2 M sodium phosphate, pH 7.15 and 2 mM magnesium chloride) to the lysate in a 96-well plate. Absorbance of the product ortho-nitrophenol was measured at 420 nm. The absorbance values reported are the average values from two replicate experiments performed in the same plate on the same day. Each transfection experiment was performed three times on three different days to control for variations in transfection efficiency. […]
smiles,measurement,setting,value
"CCCCCCCCC=CCCCCCCCC(=O)OC(COC(=O)CCC(=O)OC1CCC2(C)C(=CCC3C2CCC2(C)C(C(C)CCCC(C)C)CCC32)C1)C[N+](C)(C)C.[I-] (stereo not drawn) [Lipid 8, N,N,N-Trimethyl-N-[2-(9(Z)-octadecanoyloxy),3-succinyloxy(4-cholesteryloxy)-propyl]ammonium iodide]",knockdown of CDK9 expression,CDK9 expression,67%
same,tissues with the highest fluorescent intensity of delivered Cy3-labeled siRNA,[1],"the spleen, the lung and the liver"
same,transfection efficiency of lipid alone compared with lipid in combination with DOPE and DOPC,[2],about as efficient
